ChEMBL document CHEMBL3407446, “Effect of new hybrids based on 5,16-pregnadiene scaffold linked to an anti-inflammatory drug on the growth of a human astrocytoma cell line (U373)” (Eur J Med Chem, 2015)
The source made the active and inactive calls. The calls are words filed in the database; no cut-off is given here.

Assays:
U-373MG ATCC [1] = test: Antiproliferative activity against human U373MG cells assessed as effect on cell number at 1 nM to 10 uM incubated for 1 to 6 days by trypan blue dye exclusion dye based inverted microscopy; type: functional
U-373MG ATCC [2] = test: Antiproliferative activity against human U373MG cells assessed reduction in cell number at 1 nM and 10 nM incubated for 1 to 6 days by trypan blue dye exclusion dye based inverted microscopy; type: functional
[3] = Antiproliferative activity against human U373MG cells assessed reduction in cell number at 10 uM incubated for 6 days by trypan blue dye exclusion dye based inverted microscopy; type: functional, U-373MG ATCC; details: U373 MG, 144 h
U-373MG ATCC [4] = test: Antiproliferative activity against human U373MG cells assessed reduction in cell number at 1 nM and 5 uM incubated for 1 to 6 days by trypan blue dye exclusion dye based inverted microscopy; type: functional
U-373MG ATCC [5] = test: Antiproliferative activity against human U373MG cells assessed reduction in cell number at 10 uM incubated for 1 to 6 days by trypan blue dye exclusion dye based inverted microscopy; type: functional
U-373MG ATCC [6] = test: Antiproliferative activity against human U373MG cells assessed reduction in cell number at 1 nM and 10 uM incubated for 1 to 6 days by trypan blue dye exclusion dye based inverted microscopy; type: functional
U-373MG ATCC [7] = test: Induction of cell proliferation of human U373MG cells at 1 nM and 10 nM incubated for 1 to 6 days by trypan blue dye exclusion dye based inverted microscopy; type: functional

CC1=C(CC(=O)O)c2cc(F)ccc2/C1=C\c1ccc([S+](C)[O-])cc1 (stereo not drawn)
Activity (U-373MG ATCC [1]): Active | Activity (U-373MG ATCC [2]): Active

COc1ccc2c(c1)c(CC(=O)O)c(C)n2C(=O)c1ccc(Cl)cc1
Activity (U-373MG ATCC [1]): inactive

CC(=O)C1=CC[C@H]2[C@@H]3CC(=O)C4=C[C@@H](O)CC[C@]4(C)[C@H]3CC[C@]12C
IC50 [3]: 3.02 µM | Activity (U-373MG ATCC [4]): Active

COc1ccc2cc([C@H](C)C(=O)O)ccc2c1
Activity (U-373MG ATCC [1]): inactive

CC(C)Cc1ccc(C(C)C(=O)O)cc1 (stereo not drawn)
Activity (U-373MG ATCC [1]): inactive

CC(=O)C1=CC[C@H]2[C@@H]3CC(=O)C4=C[C@@H](OC(=O)[C@H](C)c5cccc(C(=O)c6ccccc6)c5)CC[C@]4(C)[C@H]3CC[C@]12C
Activity (U-373MG ATCC [1]): inactive

CC(C(=O)O)c1cccc(C(=O)c2ccccc2)c1 (stereo not drawn)
Activity (U-373MG ATCC [1]): inactive

COc1ccc2c(c1)c(CC(=O)O[C@@H]1C=C3C(=O)C[C@@H]4[C@H](CC[C@]5(C)C(C(C)=O)=CC[C@@H]45)[C@@]3(C)CC1)c(C)n2C(=O)c1ccc(Cl)cc1
Activity (U-373MG ATCC [1]): Active | IC50 [3]: 0.016 µM | Activity (U-373MG ATCC [5]): Active

CC(=O)C1=CC[C@H]2[C@@H]3CC(=O)C4=C[C@@H](OC(=O)[C@H](C)c5ccc(CC(C)C)cc5)CC[C@]4(C)[C@H]3CC[C@]12C
Activity (U-373MG ATCC [1]): Active | Activity (U-373MG ATCC [5]): Active

COc1ccc2cc([C@@H](C)C(=O)O[C@@H]3C=C4C(=O)C[C@@H]5[C@H](CC[C@]6(C)C(C(C)=O)=CC[C@@H]56)[C@@]4(C)CC3)ccc2c1
Activity (U-373MG ATCC [6]): Active | Activity (U-373MG ATCC [1]): Active | IC50 [3]: 17.7 µM | Activity (U-373MG ATCC [7]): Active
